According to patent publication EP3046573B1, “AMYLIN ANALOGUES” (Zealand Pharma A/S, priority 2013, dated 2015):
pEC50: −log10 of the molar value. Where two headings read alike, the source gives them in different places. Numbered stars: 1 amine (or outer) side, 2 acyl side, 3 side chain; on linkers, the order of the positions; unused ones are H or OH. Bridge positions count the residues as written; N and C are the ends. Square brackets hold non-standard residues; d marks the D form. Peptide text beside a SMILES is read from it. * marks the point of attachment. C20 diacid = O=C(O)CCCCCCCCCCCCCCCCCCC(=O)*; γGlu = O=C(O)[C@H](CCC(=O)[*:2])N[*:1]; NMeI = CC[C@H](C)[C@H](NC)C(=O)O; Sar = CNCC(=O)O

What was measured:
[1] = Solubility assessment (turbidity absorbance at 325 nm); type: physicochemical; details: stock 2 mg/ml diluted 1:1, ambient temperature (typically 25°C), n=1; for Solubility, Acetate buffer pH 4: 100 mM acetate buffer pH 4.0; for Solubility, Acetate buffer pH 5: 100 mM acetate buffer pH 5.0; for Solubility, Histidine buffer pH 6: 100 mM histidine buffer pH 6.0; for Solubility, Histidine buffer pH 7: 100 mM histidine buffer pH 7.0; for Solubility, Phosphate buffer pH 6: 100 mM phosphate buffer pH 6.0; for Solubility, Phosphate buffer pH 7: 100 mM phosphate buffer pH 7.0; for Solubility, Phosphate buffer pH 7.5: 100 mM phosphate buffer pH7.5
Summary of the method: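 Turbidimetric screen across pH 4.0–7.5 in 100 mM acetate, histidine and phosphate buffers. A 2 mg/ml peptide stock (pH 2.5) was diluted 1:1 into each, then A325 measured at ambient temperature; values ≤ 0.02 AU denoted solubility of 1 mg/ml or more.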

[2] = target: T1, human calcitonin receptor (hCTR2) (Homo sapiens, UniProt P30988); assay: hCTR2 assay: induction of cAMP (AlphaScreen cAMP Assay kit) in COS7 cells expressing hCTR2; type: cell-based
T1 construct: expressed in transfected cells
T1 sequence (P30988 25-474): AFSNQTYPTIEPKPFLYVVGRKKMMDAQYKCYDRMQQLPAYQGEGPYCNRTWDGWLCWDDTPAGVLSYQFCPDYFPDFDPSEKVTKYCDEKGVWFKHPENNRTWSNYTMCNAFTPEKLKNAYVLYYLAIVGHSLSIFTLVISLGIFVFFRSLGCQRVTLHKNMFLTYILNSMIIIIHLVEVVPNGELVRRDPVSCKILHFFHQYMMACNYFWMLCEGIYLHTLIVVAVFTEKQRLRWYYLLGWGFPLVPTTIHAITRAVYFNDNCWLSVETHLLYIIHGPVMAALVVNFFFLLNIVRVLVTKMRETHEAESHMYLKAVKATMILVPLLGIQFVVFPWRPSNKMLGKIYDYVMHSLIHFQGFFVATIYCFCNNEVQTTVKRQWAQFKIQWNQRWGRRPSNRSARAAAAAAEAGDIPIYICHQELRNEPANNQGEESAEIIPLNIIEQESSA
Summary of the method: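 Cells were seeded one day ahead, washed, then exposed to rising peptide concentrations for 15 min at 37° C in the presence of 100 µM IBMX. After lysis for 10 min at room temperature, cAMP was quantified by AlphaScreen and EC50 values derived by 4PL fitting.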

[3] = cAMP induction in COS7 cells expressing hCTR2, average of a minimum of 3 determinations, read-out: hCTR2 EC50

**Q.** What does the source list for `CC[C@H](C)[C@@H](C(=O)N[C@@H](CC(C)C)C(=O)N[C@@H](CO)C(=O)N[C@@H](CO)C(=O)N[C@H](C(=O)N[C@@H](CC(N)=O)C(=O)N[C@H](C(=O)NCC(=O)N[C@@H](CO)C(=O)N[C@@H](CC(N)=O)C(=O)N[C@H](C(=O)N1CCC[C@H]1C(N)=O)[C@@H](C)O)C(C)C)[C@@H](C)O)N(C)C(=O)CN(C)C(=O)[C@H](CC(N)=O)NC(=O)[C@H](CC(N)=O)NC(=O)[C@H](CO)NC(=O)[C@H](CO)NC(=O)[C@H](Cc1c[nH]cn1)NC(=O)[C@H](Cc1c[nH]cn1)NC(=O)[C@H](CC(C)C)NC(=O)[C@H](Cc1ccccc1)NC(=O)[C@H](CCC(=O)O)NC(=O)[C@H](C)NC(=O)[C@H](CC(C)C)NC(=O)[C@H](CCCNC(=N)N)NC(=O)[C@H](CCC(N)=O)NC(=O)[C@@H](NC(=O)[C@H](C)NC(=O)[C@@H]1CSSC[C@H](NC(=O)[C@H](CCCNC(=N)N)NC(=O)CC[C@H](NC(=O)CCCCCCCCCCCCCCCCCCC(=O)O)C(=O)O)C(=O)N[C@@H](CC(N)=O)C(=O)N[C@@H]([C@@H](C)O)C(=O)N[C@@H](C)C(=O)N[C@@H]([C@@H](C)O)C(=O)N1)[C@@H](C)O` [Compound 51, [19CD]-isoGlu-RC()NTATC()ATQRLAEFLHHSSNN-Gly(Me)-Ile(Me)-LSSTNVGSNTP-NH2] ({C20 diacid-γGlu}-RCNTATCATQRLAEFLHHSSNN[Sar][NMeI]LSSTNVGSNTP-NH2; disulfide 2-7)?
**A.** Solubility, Acetate buffer pH 4 [1]: II (II indicates solubility ≤ 1 mg/ml); Solubility, Acetate buffer pH 5 [1]: II (II indicates solubility ≤ 1 mg/ml); Solubility, Histidine buffer pH 6 [1]: II (II indicates solubility ≤ 1 mg/ml); Solubility, Histidine buffer pH 7 [1]: II (II indicates solubility ≤ 1 mg/ml); Solubility, Phosphate buffer pH 6 [1]: II (II indicates solubility ≤ 1 mg/ml); Solubility, Phosphate buffer pH 7 [1]: II (II indicates solubility ≤ 1 mg/ml); Solubility, Phosphate buffer pH 7.5 [1]: II (II indicates solubility ≤ 1 mg/ml); pEC50 [2, 3]: 10.03

**Q.** With `CC[C@H](C)[C@@H](C(=O)N[C@@H](CC(C)C)C(=O)N[C@@H](CO)C(=O)N[C@@H](CO)C(=O)N[C@H](C(=O)N[C@@H](CC(N)=O)C(=O)N[C@H](C(=O)NCC(=O)N[C@@H](CO)C(=O)N[C@@H](CC(N)=O)C(=O)N[C@H](C(=O)N1CCC[C@H]1C(N)=O)[C@@H](C)O)C(C)C)[C@@H](C)O)N(C)C(=O)[C@H](C)NC(=O)CN(C)C(=O)[C@H](Cc1ccccc1)NC(=O)[C@H](CO)NC(=O)[C@H](CO)NC(=O)[C@H](Cc1c[nH]cn1)NC(=O)[C@H](Cc1c[nH]cn1)NC(=O)[C@H](CC(C)C)NC(=O)[C@H](Cc1ccccc1)NC(=O)[C@H](CCC(=O)O)NC(=O)[C@H](C)NC(=O)[C@H](CC(C)C)NC(=O)[C@H](CCCNC(=N)N)NC(=O)[C@H](CCC(N)=O)NC(=O)[C@@H](NC(=O)[C@H](C)NC(=O)[C@@H]1CSSC[C@H](NC(=O)[C@H](CCCNC(=N)N)NC(=O)CC[C@H](NC(=O)CCCCCCCCCCCCCCCCCCC(=O)O)C(=O)O)C(=O)N[C@@H](CC(N)=O)C(=O)N[C@@H]([C@@H](C)O)C(=O)N[C@@H](C)C(=O)N[C@@H]([C@@H](C)O)C(=O)N1)[C@@H](C)O` [Compound 52, [19CD]-isoGlu-RC()NTATC()ATQRLAEFLHHSSF-Gly(Me)-A-Ile(Me)-LSSTNVGSNTP-NH2] ({C20 diacid-γGlu}-RCNTATCATQRLAEFLHHSSF[Sar]A[NMeI]LSSTNVGSNTP-NH2; disulfide 2-7) as the compound, how does the “Solubility, Acetate buffer pH 4” value [1] read?
**A.** Its value is “SS (SS indicates solubility ≥ 1mg/ml)”.

**Q.** What about the “Solubility, Acetate buffer pH 5” value [1] of the same compound?
**A.** Its value is “SS (SS indicates solubility ≥ 1mg/ml)”.

**Q.** What about the “Solubility, Histidine buffer pH 6” value [1] of the same compound?
**A.** The value was “SS (SS indicates solubility ≥ 1mg/ml)”.

**Q.** And the “Solubility, Histidine buffer pH 7” value [1]?
**A.** Its value is “SS (SS indicates solubility ≥ 1mg/ml)”.

**Q.** What about the “Solubility, Phosphate buffer pH 6” value [1] of the same compound?
**A.** The value was “SS (SS indicates solubility ≥ 1mg/ml)”.

**Q.** And the “Solubility, Phosphate buffer pH 7” value [1]?
**A.** The value was “SS (SS indicates solubility ≥ 1mg/ml)”.

**Q.** And the “Solubility, Phosphate buffer pH 7.5” value [1]?
**A.** The value was “SS (SS indicates solubility ≥ 1mg/ml)”.

**Q.** And the pEC50 [2, 3]?
**A.** Its pEC50 is 10.12.

**Q.** What does the source list for `CC[C@H](C)[C@@H](C(=O)N[C@@H](CC(C)C)C(=O)N[C@@H](CO)C(=O)N[C@@H](CO)C(=O)N[C@H](C(=O)N[C@@H](CC(N)=O)C(=O)N[C@H](C(=O)NCC(=O)N[C@@H](CO)C(=O)N[C@@H](CC(N)=O)C(=O)N[C@H](C(=O)N1CCC[C@H]1C(N)=O)[C@@H](C)O)C(C)C)[C@@H](C)O)N(C)C(=O)CN(C)C(=O)[C@H](Cc1ccccc1)NC(=O)[C@H](CO)NC(=O)[C@H](CO)NC(=O)[C@H](Cc1c[nH]cn1)NC(=O)[C@H](Cc1c[nH]cn1)NC(=O)[C@H](CC(C)C)NC(=O)[C@H](Cc1ccccc1)NC(=O)[C@H](CCC(=O)O)NC(=O)[C@H](C)NC(=O)[C@H](CC(C)C)NC(=O)[C@H](CCCNC(=N)N)NC(=O)[C@H](CCC(N)=O)NC(=O)[C@@H](NC(=O)[C@H](C)NC(=O)[C@@H]1CSSC[C@H](NC(=O)[C@H](CCCNC(=N)N)NC(=O)CC[C@H](NC(=O)CCCCCCCCCCCCCCCCCCC(=O)O)C(=O)O)C(=O)N[C@@H](CC(N)=O)C(=O)N[C@@H]([C@@H](C)O)C(=O)N[C@@H](C)C(=O)N[C@@H]([C@@H](C)O)C(=O)N1)[C@@H](C)O` [Compound 53, [19CD]-isoGlu-RC()NTATC()ATQRLAEFLHHSSF-Gly(Me)-Ile(Me)-LSSTNVGSNTP-NH2] ({C20 diacid-γGlu}-RCNTATCATQRLAEFLHHSSF[Sar][NMeI]LSSTNVGSNTP-NH2; disulfide 2-7)?
**A.** Solubility, Acetate buffer pH 4 [1]: SS (SS indicates solubility ≥ 1mg/ml); Solubility, Acetate buffer pH 5 [1]: SS (SS indicates solubility ≥ 1mg/ml); Solubility, Histidine buffer pH 6 [1]: SS (SS indicates solubility ≥ 1mg/ml); Solubility, Histidine buffer pH 7 [1]: SS (SS indicates solubility ≥ 1mg/ml); Solubility, Phosphate buffer pH 6 [1]: SS (SS indicates solubility ≥ 1mg/ml); Solubility, Phosphate buffer pH 7 [1]: SS (SS indicates solubility ≥ 1mg/ml); Solubility, Phosphate buffer pH 7.5 [1]: SS (SS indicates solubility ≥ 1mg/ml); pEC50 [2, 3]: 9.92

**Q.** For `CC[C@H](C)[C@@H](C(=O)N[C@@H](CO)C(=O)N[C@@H](CO)C(=O)N[C@H](C(=O)N[C@@H](CC(N)=O)C(=O)N[C@H](C(=O)NCC(=O)N[C@@H](CO)C(=O)N[C@@H](CC(N)=O)C(=O)N[C@H](C(=O)N1CCC[C@H]1C(N)=O)[C@@H](C)O)C(C)C)[C@@H](C)O)N(C)C(=O)[C@H](C)NC(=O)CN(C)C(=O)[C@H](Cc1ccccc1)NC(=O)[C@H](CC(N)=O)NC(=O)[C@H](CC(N)=O)NC(=O)[C@H](CO)NC(=O)[C@H](CO)NC(=O)[C@H](Cc1c[nH]cn1)NC(=O)[C@H](Cc1c[nH]cn1)NC(=O)[C@H](CC(C)C)NC(=O)[C@H](Cc1ccccc1)NC(=O)[C@H](CCC(=O)O)NC(=O)[C@H](C)NC(=O)[C@H](CC(C)C)NC(=O)[C@H](CCCNC(=N)N)NC(=O)[C@H](CCC(N)=O)NC(=O)[C@@H](NC(=O)[C@H](C)NC(=O)[C@@H]1CSSC[C@H](NC(=O)[C@H](CCCNC(=N)N)NC(=O)CC[C@H](NC(=O)CCCCCCCCCCCCCCCCCCC(=O)O)C(=O)O)C(=O)N[C@@H](CC(N)=O)C(=O)N[C@@H]([C@@H](C)O)C(=O)N[C@@H](C)C(=O)N[C@@H]([C@@H](C)O)C(=O)N1)[C@@H](C)O` [Compound 54, [19CD]-isoGlu-RC()NTATC()ATQRLAEFLHHSSNNF-Gly(Me)-A-Ile(Me)-SSTNVGSNTP-NH2] ({C20 diacid-γGlu}-RCNTATCATQRLAEFLHHSSNNF[Sar]A[NMeI]SSTNVGSNTP-NH2; disulfide 2-7), which “Solubility, Acetate buffer pH 4” value [1] is on record?
**A.** The value was “SS (SS indicates solubility ≥ 1mg/ml)”.

**Q.** And the “Solubility, Acetate buffer pH 5” value [1]?
**A.** The value was “SS (SS indicates solubility ≥ 1mg/ml)”.

**Q.** What about the “Solubility, Histidine buffer pH 6” value [1] of the same compound?
**A.** Its value is “SS (SS indicates solubility ≥ 1mg/ml)”.

**Q.** What about the “Solubility, Histidine buffer pH 7” value [1] of the same compound?
**A.** The value was “SS (SS indicates solubility ≥ 1mg/ml)”.

**Q.** And the “Solubility, Phosphate buffer pH 6” value [1]?
**A.** The value was “SS (SS indicates solubility ≥ 1mg/ml)”.

**Q.** And the “Solubility, Phosphate buffer pH 7” value [1]?
**A.** Its value is “SS (SS indicates solubility ≥ 1mg/ml)”.

**Q.** What about the “Solubility, Phosphate buffer pH 7.5” value [1] of the same compound?
**A.** Its value is “SS (SS indicates solubility ≥ 1mg/ml)”.

**Q.** What about the pEC50 [2] of the same compound?
**A.** The pEC50 was 10.04.
